Laboratory results from patent US20240182495A1, “ANTIBACTERIAL COMPOUNDS” (JANSSEN SCIENCES IRELAND UNLIMITED COMPANY, priority 2021, published 2024).
In brackets after ≈: the same amount, converted by molar mass.

Tests used:
[1] = system: Mycobacterium tuberculosis strain (EH4.0, GFP-expressing; Test 2: H37Rv); assay: MIC determination against M. tuberculosis, Test 1 (and/or Test 2); assay type: cell-based; details: 7 days incubation, fluorescence; for IC50: Mycobacterium tuberculosis, H37RV, 168 h
[2] = Chemical stability testing in DMSO, ACN/H2O, ACN/0.1N HCl, ACN/0.1N NaOH (% by LCMS); assay type: physicochemical
Description: Preliminary Protocol • Add 3 μl of a 10 mM DMSO stock solution to 1 ml of the following solvents in a 1.5 ml HPLC vial. • DMSO (reference solution) • H2O/Acetonitril 1/1 (assay solution) • 0.1N HCl/Acetonitril 1/1 (assay solution) • Mix well, […] LCMS • Compare the chromatograms of the two assay solutions with the reference solution and report the additional peaks as degradation peaks

in vitro = details: mouse, hepatocytes
2C9 = 2C9 (Homo sapiens, UniProt P11712); assay: CYP cocktail inhibition, 2C9; assay type: in vitro ADME; details: read-out: CYPS IC50 2C9
Text: (§1) The compounds of the invention/examples may have advantages associated with in vitro potency, kill kinetics (i.e. bactericidal effect) in vitro, PK properties, food effect, safety/toxicity (including liver toxicity, coagulation, 5-LO oxygenase), metabolic stability, Ames II negativity, MINT negativity, aqueous based solubility (and ability to formulate) and/or cardiovascular effect e.g. on animals (e.g. anesthetized guinea pig). Data that is generated/calculated may be obtained using standard methods/assays, for instance that are available in the literature or which may be performed by a supplier (e.g. Microsomal Stability Assay—Cyprotex, Mitochondrial toxicity (Glu/Gal) assay—Cyprotex, as well as literature CYP cocktail inhibition assays). GSH can be measured (reactive metabolites, […]) to observe if a dihydrodiol is observed by LCMS (fragmentation ions), which would correspond to a dihydroxylation on the core heterocycle.

2C19 = 2C19 (Homo sapiens, UniProt P33261); assay: CYP cocktail inhibition, 2C19; assay type: in vitro ADME; details: read-out: CYPS IC50 2C19
Text: as §1

MDCK = MDCK permeability / efflux; details: A to B with inhibitor; also: unit not given here
[3] = Mitochondrial toxicity (Glu/Gal) assay; assay type: cell-based; also: unit not given here
Text: as §1

physchem [4] = assay: physchem
[5] = LM Clint (microsomal stability), mouse; assay type: in vitro ADME; details: mouse, microsomes
Text: as §1

hERG = hERG (Homo sapiens, UniProt Q12809); assay: sync hERG; assay type: cell-based
[6] = LM Clint (microsomal stability), human; assay type: in vitro ADME; details: human, microsomes
Text: as §1

physchem [7] = assay type: physicochemical
Text: as §1

[8] = system: CYPs (all isoforms, or the isoforms not named for that compound); assay: CYP cocktail inhibition, all / other isoforms; assay type: in vitro ADME; details: human, read-out: CYPS IC50 (all / others)
Text: as §1

AMES II = details: score
Text: as §1

2C19, sequence (P33261 whole entry): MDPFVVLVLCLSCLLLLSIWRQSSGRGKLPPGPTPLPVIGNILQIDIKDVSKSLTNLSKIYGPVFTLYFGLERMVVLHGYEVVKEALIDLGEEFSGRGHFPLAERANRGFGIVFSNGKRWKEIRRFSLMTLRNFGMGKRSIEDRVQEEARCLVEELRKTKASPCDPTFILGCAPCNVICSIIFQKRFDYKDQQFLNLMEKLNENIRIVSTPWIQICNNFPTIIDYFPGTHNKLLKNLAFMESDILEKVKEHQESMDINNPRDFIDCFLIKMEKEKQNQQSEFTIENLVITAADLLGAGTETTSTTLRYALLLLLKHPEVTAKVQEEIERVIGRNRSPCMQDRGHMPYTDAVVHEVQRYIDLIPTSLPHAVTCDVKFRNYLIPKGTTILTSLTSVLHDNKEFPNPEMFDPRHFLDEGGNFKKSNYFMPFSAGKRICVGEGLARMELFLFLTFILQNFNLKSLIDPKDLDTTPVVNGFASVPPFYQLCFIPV
hERG, sequence (Q12809 whole entry): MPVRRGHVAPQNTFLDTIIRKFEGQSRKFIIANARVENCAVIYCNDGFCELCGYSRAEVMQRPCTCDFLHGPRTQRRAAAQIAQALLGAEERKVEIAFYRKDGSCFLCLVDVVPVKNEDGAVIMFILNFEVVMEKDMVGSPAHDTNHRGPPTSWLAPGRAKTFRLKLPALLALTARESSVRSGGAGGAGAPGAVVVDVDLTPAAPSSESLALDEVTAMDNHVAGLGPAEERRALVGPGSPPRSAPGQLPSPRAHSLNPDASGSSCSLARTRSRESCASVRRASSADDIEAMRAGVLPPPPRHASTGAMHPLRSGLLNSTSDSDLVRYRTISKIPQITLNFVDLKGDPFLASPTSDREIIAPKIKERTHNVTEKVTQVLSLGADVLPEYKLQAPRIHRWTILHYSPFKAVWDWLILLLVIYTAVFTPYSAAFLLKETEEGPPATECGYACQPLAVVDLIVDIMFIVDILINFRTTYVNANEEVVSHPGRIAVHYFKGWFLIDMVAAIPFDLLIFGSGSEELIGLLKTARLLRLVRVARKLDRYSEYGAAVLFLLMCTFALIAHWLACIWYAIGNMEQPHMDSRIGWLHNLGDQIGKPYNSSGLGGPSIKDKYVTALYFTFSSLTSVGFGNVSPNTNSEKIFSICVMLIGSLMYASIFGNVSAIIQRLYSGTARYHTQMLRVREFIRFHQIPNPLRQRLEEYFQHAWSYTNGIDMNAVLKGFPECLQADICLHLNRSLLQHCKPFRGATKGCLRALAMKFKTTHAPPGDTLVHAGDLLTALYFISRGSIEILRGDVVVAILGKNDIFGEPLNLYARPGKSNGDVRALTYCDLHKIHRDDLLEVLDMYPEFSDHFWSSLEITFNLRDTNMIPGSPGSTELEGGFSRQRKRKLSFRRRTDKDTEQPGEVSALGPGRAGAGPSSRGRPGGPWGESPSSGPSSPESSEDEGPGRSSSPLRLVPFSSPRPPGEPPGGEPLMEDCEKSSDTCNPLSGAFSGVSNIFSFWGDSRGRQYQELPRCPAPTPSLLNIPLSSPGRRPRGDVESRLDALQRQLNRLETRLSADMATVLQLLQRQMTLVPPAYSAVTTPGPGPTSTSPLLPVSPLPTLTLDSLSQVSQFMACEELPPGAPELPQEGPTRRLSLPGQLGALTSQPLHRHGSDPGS
2C9, sequence (P11712 whole entry): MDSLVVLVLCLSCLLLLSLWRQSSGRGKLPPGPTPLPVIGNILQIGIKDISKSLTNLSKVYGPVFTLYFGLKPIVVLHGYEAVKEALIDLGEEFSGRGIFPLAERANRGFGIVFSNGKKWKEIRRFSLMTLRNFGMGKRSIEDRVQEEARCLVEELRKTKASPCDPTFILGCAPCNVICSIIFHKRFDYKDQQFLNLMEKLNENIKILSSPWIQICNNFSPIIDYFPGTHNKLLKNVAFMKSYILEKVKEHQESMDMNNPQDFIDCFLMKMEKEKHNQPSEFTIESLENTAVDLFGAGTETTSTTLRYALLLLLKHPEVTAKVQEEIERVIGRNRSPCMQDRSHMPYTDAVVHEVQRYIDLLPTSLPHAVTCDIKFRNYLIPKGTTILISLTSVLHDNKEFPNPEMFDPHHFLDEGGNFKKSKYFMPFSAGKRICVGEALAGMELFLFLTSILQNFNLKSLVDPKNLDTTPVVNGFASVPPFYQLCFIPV

For `CCc1nc2ncc(C)cn2c1C(=O)NCCc1ccc(-c2nc3n(n2)CCN(S(=O)(=O)C(F)(F)F)C3)cc1` [Compound 66], the pIC50 [1] was 6.57, the “chemical stability (% by LCMS)” value ([2]; ACN/0.1N HCl (pH 1.6; 48 hr, rt)) was 98% and the “chemical stability (% by LCMS)” value ([2]; ACN/H2O (48 hr, rt)) was 98%. For the same compound, the “chemical stability (% by LCMS)” value ([2]; DMSO (0 hr, rt)) was 91%.

For `CCc1nc2ncc(C)cn2c1C(=O)NCc1ccc(-c2nc3n(n2)CCN(S(=O)(=O)N2CCCC2)C3)cc1` [Compound 47], the IC50 [1] was 20 nM, the “chemical stability (% by LCMS)” value ([2]; 48 h, 30 μM) was 99% and the “chemical stability (% by LCMS)” value ([2]; 48 h, 30 μM, pH 1.6) was 100%.

In the case of `CCc1nc2ccc(C)cn2c1C(=O)NCc1ccc(-c2nc3n(n2)CCN(S(=O)(=O)C(F)(F)F)C3)cc1` [Compound 24], the IC50 [1] is reported as 8.91 nM, the “chemical stability (% by LCMS)” value ([2]; 0 h, 30 μM) is reported as 100% and the “chemical stability (% by LCMS)” value ([2]; 0 h, 30 μM, pH 1.6) is reported as 100%. The “chemical stability (% by LCMS)” value ([2]; 0 h, 30 μM, pH 9) was 89.46%, the “chemical stability (% by LCMS)” value ([2]; 48 h, 30 μM) was 100% and the “chemical stability (% by LCMS)” value ([2]; 48 h, 30 μM, pH 1.6) was 100%. The “chemical stability (% by LCMS)” value ([2]; 48 h, 30 μM, pH 9) was 43.8%.

For `CCc1nc2cc(OC)c(Cl)cn2c1C(=O)NCc1ccc(-c2nc3n(n2)CCN(S(=O)(=O)C(F)(F)F)C3)c(F)c1` [Compound 10], the IC50 [1] was > 500 nM, the “chemical stability (% by LCMS)” value ([2]; 72 h, 30 µM) was 97.03% and the “chemical stability (% by LCMS)” value ([2]; 72 h, 30 µM, pH 1.6) was 100%.

`CCc1nc2ccc(C)cn2c1C(=O)NCc1ccc(-c2cn3c(n2)CN(S(=O)(=O)C(F)(F)F)CC3)cc1` [Compound 79] showed a half-life (in vitro) of 43.3 min, an IC50 (2C9) of 17.7 µM and an IC50 (2C19) of 14.4 µM. The “MDCK AB+inh” value (MDCK) was 42.7, the “Glu/Gal: Gal” value ([3]; galactose medium) was > 200 and the “Glu/Gal: Glu” value ([3]; glucose medium) was > 200. For the same compound, the solubility (physchem [4]; fassif) was 5.6 µM (≈ 3.06 µg/mL), the solubility (physchem [4]; fessif) was 29.3 µM (≈ 16 µg/mL) and the microsomal CLint [5] was 13.2 µL/min/mg. The IC50 [1] was 6.76 nM, the IC50 (hERG) was 30.2 µM and the microsomal CLint [6] was 39.8 µL/min/mg. For the same compound, the “chemical stability (% by LCMS)” value ([2]; 0 h, 30 μM) was 100%, the “chemical stability (% by LCMS)” value ([2]; 48 h, 30 μM) was 100% and the “chemical stability (% by LCMS)” value ([2]; 48 h, 30 μM, pH 1.6) was 100%. For the same compound, the solubility thermodynamic (physchem [7]; pH 2, simulated gastric fluid, thermodynamic from solid) was 574 µM (≈ 314 µg/mL), the solubility thermodynamic (physchem [7]; pH 4, aqueous buffer) was 0.062 µM (≈ 0.0339 µg/mL) and the IC50 [8] was > 20 µM. For the same compound, the “AMES II” value (AMES II) was 1.

For `CCc1nc2ncc(C)cn2c1C(=O)NCc1ccc(-c2cc3n(n2)CCN(S(=O)(=O)C(F)(F)F)C3)cc1` [Compound 44], the IC50 [1] was 2.19 nM, the “chemical stability (% by LCMS)” value ([2]; 48 h, 30 μM) was 100% and the “chemical stability (% by LCMS)” value ([2]; 48 h, 30 μM, pH 1.6) was 100%.

In the case of `CCc1nc2ccc(Cl)cn2c1C(=O)NCc1cnc(-c2nc3n(n2)CCN(S(=O)(=O)C(F)(F)F)C3)c(F)c1` [Compound 15], the IC50 [1] is reported as 501 nM, the “chemical stability (% by LCMS)” value ([2]; 72 h, 30 µM) is reported as 97.03% and the “chemical stability (% by LCMS)” value ([2]; 72 h, 30 µM, pH 1.6) is reported as 97.49%.

For `CCc1nc2ccc(C)cn2c1C(=O)NCc1ccc(-c2cc3n(n2)CCN(S(=O)(=O)C(F)(F)F)C3)cc1` [Compound 81], the IC50 [1] was 20.4 nM, the “chemical stability (% by LCMS)” value ([2]; 0 h, 30 μM) was 95% and the “chemical stability (% by LCMS)” value ([2]; 48 h, 30 μM) was 100%. For the same compound, the “chemical stability (% by LCMS)” value ([2]; 48 h, 30 μM, pH 1.6) was 100%.
